From US20150371009A1, “DRUG IDENTIFICATION MODELS AND METHODS OF USING THE SAME TO IDENTIFY COMPOUNDS TO TREAT DISEASE” (priority 2014, published 2015)

Columns and labels:
[1] = system: MCF7 breast cancer cell line (ER+); assay: In vitro cell line proliferation assay (MTS), MCF7; type: cell-based; conditions: 96 hours; for inhibition of cell line proliferation: ER+ MCF7, escalating doses
Protocol: (§1) In vitro cell line proliferation assays. MCF7 and SK-BR-3 breast cancer cell lines were provided by the American Type Culture Collections (ATCC; Manassas, Va.) and cultured in complete medium (high glucose DMEM supplemented with 10% fetal bovine serum, L-glutamine, and pen/strep antibiotics). Drugs were purchased from Sigma-Aldrich (St. Louis, Mo.). Proliferation assays were performed as previously described with minor modifications. Cells were seeded at 5×10^3 cells per well in a 96 well plate in the morning. […] The plates were incubated at 37° C./5% CO2 for 96 hours. Cell proliferation was analyzed using MTS reagent (Promega; Madison, Wis.) according to manufacturer's protocol.
(§2) Tamoxifen was selected as a currently used breast cancer drug for comparison. […] Cell proliferation was measured using the MTS assay according to manufacturer's protocol.

[2] = system: SK-BR-3 breast cancer cell line (ER−); assay: In vitro cell line proliferation assay (MTS), SKBR3; type: cell-based; conditions: 96 hours; for inhibition of cell line proliferation: ER− SKBR3, escalating doses
Protocol: as §1, §2

[3] = patients; donepezil doses up to 23 mg/day; cited from earlier work

In the case of 4-hydroxytamoxifen [Drug 4OHtam], the “inhibition of cell line proliferation” value [1] is reported as “dose dependent inhibition”, the IC50 ([1]; ER+ MCF7 cells, complete medium, MTS) is reported as 31.2 ± 4.9 µM and the “inhibition of cell line proliferation” value [2] is reported as “dose dependent inhibition”. The IC50 ([2]; ER− SKBR3 cells, complete medium, MTS) was 55.7 ± 4.2 µM.

For `CC/C(=C(\c1ccccc1)c1ccc(OCCN(C)C)cc1)c1ccccc1` [Tamoxifen], the “side effects / worst adverse drug reactions” value [3] is given as “severe side effects including the development of endometrial cancer”.

With `COc1cc2c(cc1OC)C(=O)C(CC1CCN(Cc3ccccc3)CC1)C2` (racemic) [Donepezil, (RS)-2-[(1-benzyl-4-piperidyl)methyl]-5,6-dimethoxy-2,3-dihydroinden-1-one] the “inhibition of cell line proliferation” value [1] was “dose dependent inhibition” and the “inhibition of cell line proliferation” value [2] was “dose dependent inhibition”.
